The test system of this experiment is ocular apoptotic cells of the zebrafish. The experiment in a line: Anti-blue light eye protection efficacy, AO staining of ocular apoptotic cells in zebrafish blue light eye damage model. To be noted: 62.5 μg/mL, aqueous, 28° C., 1 d, n = 10; model group 45833 ± 4825, normal control 12203 ± 1124. The format is in vivo. The method, then: Wild-type AB zebrafish at 1 dpf were randomly selected and irradiated with blue light after membrane rupture to establish the zebrafish blue light eye damage model. Model zebrafish with desirable development status were selected at 3 dpf and randomly distributed in 6-well plates, with 30 zebrafish in each well (experimental group) were treated. Different concentrations of guaijaverin (see Table 2 for concentrations) were administered aqueously, and lutein at a concentration of 62.5 μg/mL were used as a positive control, while a normal control group and a model group were also set up, with a volume of 3 mL per well. After 1 d of treatment at 28° C., the zebrafish in each experimental group were stained with AO in the dark for 30 min and washed 3 times with standard dilution water. 10 zebrafish were randomly selected from each experimental group and photographed under a fluorescence microscope. The data were analyzed and collected using Image J software. The fluorescence intensity of ocular apoptotic cells of the zebrafish was statistically analyzed. The anti-blue light eye protection efficacy of guaijaverin was evaluated based on the statistical analysis results of the above indicators. The statistical result was expressed as mean±SE.

On to `CC1=C[C@H](O)CC(C)(C)[C@H]1/C=C/C(C)=C/C=C/C(C)=C/C=C/C=C(C)/C=C/C=C(C)/C=C/C1=C(C)C[C@@H](O)CC1(C)C` [Lutein, lutein, reference compound], for which the “Fluorescence intensity of ocular apoptotic cells (pixel, mean ± SE)” value was 21751 ± 2993 pixel.

(Values after patent US20250367160A1, “USE OF GUAIJAVERIN IN PREPARATION OF EYE PROTECTION PRODUCT” (Innovation Center of Yangtze River Delta, ZJU, priority 2024, published 2025).)
